Assay [1] has as its target T1, Isoleucyl-tRNA synthetase (Rattus norvegicus, UniProt O35880).
T1 sequence (O35880 whole entry): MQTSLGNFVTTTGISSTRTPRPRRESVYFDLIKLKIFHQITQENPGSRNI
The assay is described as follows: Inhibitory concentration against Isoleucyl-tRNA synthetase (IleRS) activity.

Assay [2] concerns NRK. The assay is described as follows: In vitro inhibition of protein synthesis in srcts-NRK cell at 1 ug/mL. Format: functional. To be noted: Rattus norvegicus.
Assay [3] concerns NRK. The assay is described as follows: Morphological reversion of srcts-NRK cells concentration at 100 ug/mL. Format: functional, Rattus norvegicus.
Assay [4] deals with NRK. The assay is described as follows: Morphological reversion of src-transformed-NRK cells at 20 ug/mL. The class given is functional, Rattus norvegicus.
Assay [5] relates to NRK. The assay is described as follows: Morphological reversion of src-transformed-NRK cells at 50 ug/mL. Format: functional.
Assay [6] deals with NRK. The assay is described as follows: Morphological reversion of src-transformed-NRK cells at 10 ug/mL. The class given is functional, Rattus norvegicus.
The test system of assay [7] is NRK. The assay is described as follows: Morphological reversion of src-transformed-NRK cells at 5 ug/mL. The class given is functional, Rattus norvegicus.
The subject of assay [8] is NRK. The assay is described as follows: In vitro inhibition of protein synthesis in src-transformed-NRK cell at 1 ug/mL. The class given is functional. Conditions: Rattus norvegicus.
Assay [9] concerns NRK. The assay is described as follows: Morphological reversion of src-transformed-NRK cells at 0.1 ug/mL. Format: functional, Rattus norvegicus.
The test system of assay [10] is NRK. The assay is described as follows: Morphological reversion of src-transformed-NRK cells at 2 ug/mL. The class given is functional, Rattus norvegicus.
The test system of assay [11] is NRK. The assay is described as follows: Morphological reversion of src-transformed-NRK cells at 1 ug/mL. The class given is functional, Rattus norvegicus.
The subject of assay [12] is NRK. The assay is described as follows: Morphological reversion of src-transformed-NRK cells at 5 ug/mL; 20-50. Format: functional, Rattus norvegicus.

Experimental findings from ChEMBL document CHEMBL1135558, “Chemical modification of reveromycin A and its biological activities” (Bioorg Med Chem Lett, 2002) are described below.

Molecules are shown by their SMILES.

Regarding `CCCC[C@]1([C@H](/C=C/C(C)=C/C(=O)O)OC(=O)CCC(=O)O)CC[C@]2(CC[C@H](C)[C@@H](C/C=C(C)/C=C/[C@H](O)[C@@H](C)/C=C/C(=O)O)O2)O1` [REVEROMYCIN B], in assay [1], the IC50 is < 1510 nM. The inhibition at 1 µg/mL with NRK [2] is < 20%. Also, the Reversion in the assay on NRK [3] is <20%.
With `CCCC[C@]1([C@H](/C=C/C(C)=C/C(=O)O)OC)CC[C@]2(CC[C@H](C)[C@@H](C/C=C(C)/C=C/[C@H](O)[C@@H](C)/C=C/C(=O)O)O2)O1`, the IC50 in [1] was < 1740 nM. Further, the inhibition at 1 µg/mL in the assay on NRK [2] was < 20%. Besides, the Reversion with NRK [3] was <20%.
On to `CCCC[C@@]1(OC(=O)CCC(=O)O)CC[C@]2(CC[C@H](C)[C@@H](CCC(C)CC[C@H](O)[C@@H](C)CCC(=O)O)O2)O[C@H]1CCC(C)CC(=O)O` (stereo partly drawn), for which the IC50 in assay [1] is < 1490 nM. Also, the inhibition at 1 µg/mL in the assay with NRK [2] is < 20%. Further, the Reversion in the assay on NRK [3] is <20%.
`CCCC[C@@]1(OC)CC[C@]2(CC[C@H](C)[C@@H](C/C=C(C)/C=C/[C@H](O)[C@@H](C)/C=C/C(=O)O)O2)O[C@H]1/C=C/C(C)=C/C(=O)O`: the IC50 in assay [1] was 44.4 nM. The Reversion in the assay with NRK [4] is reported as 50%; with NRK [5] it was >80%; with NRK [6], 50%; in the assay with NRK [3], >80%. The inhibition at 1 µg/mL in the assay with NRK [2] was > 80%.
With `CCCC[C@@]1(OC(=O)CCC(=O)O)CC[C@]2(CC[C@H](C)[C@@H](C/C=C(C)/C=C/[C@H](OC(C)=O)[C@@H](C)/C=C/C(=O)O)O2)O[C@H]1/C=C/C(C)=C/C(=O)O`, the concentration for half-maximal inhibition (IC50) in assay [1] was < 1420 nM. The Reversion with NRK [4] is >80%; in the assay on NRK [7], <20%; in the assay on NRK [5] it was >80%; with NRK [6], 50%; in the assay with NRK [3] it was >80%. For the same compound, in the assay with NRK [8], the inhibition at 1 µg/mL was < 20%.
For the compound `CCCC[C@]1([C@@H](O)/C=C/C(C)=C/C(=O)O)CC[C@]2(CC[C@H](C)[C@@H](C/C=C(C)/C=C/[C@H](O)[C@@H](C)/C=C/C(=O)O)O2)O1`, in [1], the IC50 is < 1780 nM. In addition, the inhibition at 1 µg/mL in the assay with NRK [2] is < 20%. The Reversion in the assay with NRK [3] is <20%.
`CCCC[C@@]1(OC(=O)CCC(=O)OC)CC[C@]2(CC[C@H](C)[C@@H](C/C=C(C)/C=C/[C@H](O)[C@@H](C)/C=C/C(=O)OC)O2)O[C@H]1/C=C/C(C)=C/C(=O)O` had an IC50 in assay [1] of 1450 nM. Moreover, the Reversion is on record as >80% in the assay on NRK [7]; 20% in the assay with NRK [9]; >80% in the assay with NRK [6]; >80% with NRK [3]; >80% in the assay with NRK [10]; >80% with NRK [11]. For the same compound, the inhibition at 1 µg/mL with NRK [2] was < 20%.
The compound `CCCC[C@@]1(O)CC[C@]2(CC[C@H](C)[C@@H](C/C=C(C)/C=C/[C@H](O)[C@@H](C)/C=C/C(=O)O)O2)O[C@H]1/C=C/C(C)=C/C(=O)O` had a half-maximal inhibitory concentration (IC50) in [1] of 74.4 nM. In the assay on NRK [2], the inhibition at 1 µg/mL was > 80%. The Reversion with NRK [3] is recorded as <20%.
Take `CCCC[C@@]1(OCSC)CC[C@]2(CC[C@H](C)[C@@H](C/C=C(C)/C=C/[C@H](O)[C@@H](C)/C=C/C(=O)O)O2)O[C@H]1/C=C/C(C)=C/C(=O)O`: the IC50 in assay [1] was 353 nM. The results for the Reversion in the assay with NRK [5], in the assay with NRK [6] and in the assay with NRK [3] were 50%, <20% and >80%, respectively. The inhibition at 1 µg/mL in the assay on NRK [2] was > 80%.
Take `CCCC[C@@]1(OC(=O)CCC(=O)O)CC[C@]2(CC[C@H](C)[C@@H](C/C=C(C)/C=C/[C@H](OC)[C@@H](C)/C=C/C(=O)O)O2)O[C@H]1/C=C/C(C)=C/C(=O)O`: it took 245 nM to reach half-maximal inhibition in [1] (IC50). For the same compound, the inhibition at 1 µg/mL in the assay on NRK [2] was determined as 50%. In the assay with NRK [3], the Reversion is recorded as <20%.
The matching figures for `CCCC[C@@]1(OCSC)CC[C@]2(CC[C@H](C)[C@@H](C/C=C(C)/C=C/[C@H](O)[C@@H](C)/C=C/C(=O)O)O2)O[C@H]1/C=C/C(C)=C/C(=O)OC`: < 1580 nM, < 20% and <20%.
As for `CCCC[C@@]1(OC(=O)CCC(=O)OC)CC[C@]2(CC[C@H](C)[C@@H](C/C=C(C)/C=C/[C@H](O)[C@@H](C)/C=C/C(=O)OC)O2)O[C@H]1/C=C/C(C)=C/C(=O)OC`, the half-inhibitory concentration (IC50) in assay [1] is < 1420 nM. Moreover, the inhibition at 1 µg/mL with NRK [2] is < 20%. Besides, in the assay on NRK [3], the Reversion is <20%.
For `CCCC[C@@]1(OC(=O)CCC(=O)O)CC[C@]2(CC[C@H](C)[C@@H](C/C=C(C)/C=C/[C@H](O)[C@@H](C)/C=C/C(=O)O)O2)O[C@H]1/C=C/C(C)=C/C(=O)O` [REVEROMYCIN A], the IC50 in [1] is 1.97 nM. Also, the Reversion with NRK [4] is given as >80%; in the assay with NRK [12], 20%; in the assay on NRK [5], >80%; in the assay with NRK [6] it was 50%; in the assay on NRK [3], >80%; with NRK [10] it was <20%. In addition, the inhibition at 1 µg/mL with NRK [2] is > 80%.

The term IC50 denotes the concentration that gives 50% inhibition. Low values mean greater potency in that assay, high ones weaker potency in that assay. A word on the inhibition: it is the drop in the measured response relative to a control, in per cent.
